Data published in ChEMBL document CHEMBL3045752, “Sideroxylin and 8-demethylsideroxylin from Eucalyptus saligna (Myrtaceae)” (2001).

Key:
Format in all cases: functional
Locusta migratoria = assay: Antifeedant activity against Locusta migratoria final stadium nymphs at 100 ppm by glass-fiber choice assay
Spodoptera exigua = assay: Antifeedant activity against Spodoptera exigua final stadium […] at 100 ppm by glass-fiber choice assay
Heliothis virescens = assay: Antifeedant activity against Heliothis virescens (tobacco budworm) final stadium […] at 100 ppm by glass-fiber choice assay

`COc1cc2oc(-c3ccc(O)cc3)cc(=O)c2c(O)c1C` [8-DEMETHYLSIDEROXYLIN] showed an AFI (Locusta migratoria) of 1.9%, an AFI (Spodoptera exigua) of 8.9% and an AFI (Heliothis virescens) of 7.3%.

Compound `COc1cc(/C=C/C=O)ccc1O` [CONIFERYL ALDEHYDE] has an AFI (Locusta migratoria) of 4.5%, an AFI (Spodoptera exigua) of 4% and an AFI (Heliothis virescens) of 2.2%.

Work on `COc1c(C)c(O)c2c(=O)cc(-c3ccc(O)cc3)oc2c1C` [SIDEROXYLIN] yielded an AFI (Locusta migratoria) of 24.2%, an AFI (Spodoptera exigua) of 21.2% and an AFI (Heliothis virescens) of 19.6%.
